Our source for the MIC and MBC values is patent US4758565A, “Substituted pyrimidoquinoxalines useful as anti-anaerobic agents” (G. D. Searle & Co., priority 1986, dated 1988).

≈ marks a conversion by molar mass, not a printed value.

What all share (format): cell-based
The subject of experiment [1] is Campylobacter fetus ss. jejuni ATCC 29428. Put plainly: MIC vs panel of anaerobes. The note with it: ATCC29428, procedures of Example 11 (mg/L).
The subject of experiment [2] is Peptostreptococcus anaerobius. As to the kind of experiment: MIC vs panel of anaerobes. The conditions noted are these: procedures of Example 11 (mg/L).
The test system of experiment [3] is Clostridium difficile NCIB 10666. As to the kind of experiment: MIC vs panel of anaerobes. The conditions noted are these: Clostridioides difficile, NCIB10666, procedures of Example 11 (mg/L).
Experiment [4] deals with Fusobacterium necrophorum ATCC 25286. As to the kind of experiment: MIC vs panel of anaerobes. The conditions noted are these: ATCC25286, procedures of Example 11 (mg/L).
The subject of experiment [5] is Bacteroides melanogenicus NCTC 9336. Put plainly: MIC vs panel of anaerobes. The conditions noted are these: NCTC9336, procedures of Example 11 (mg/L).
Experiment [6] concerns Campylobacter fetus ss. jejuni NCTC 10842. Put plainly: MIC vs panel of anaerobes. The conditions noted are these: NCTC10842, procedures of Example 11 (mg/L).
The next experiment concerns Peptococcus magnus. As to the kind of experiment: MIC vs panel of anaerobes. The conditions noted are these: Finegoldia magna, procedures of Example 11 (mg/L).
For experiment [7], the system named is Fusobacterium necrophorum ATCC 11295. As to the kind of experiment: MIC vs panel of anaerobes. The conditions noted are these: ATCC11295, procedures of Example 11 (mg/L).
The next experiment relates to B. fragilis NCTC 10581. As to the kind of experiment: Screening panel of Bacteroides fragilis, MIC and MBC, strain A. How it is done:
(§1) The screening panel utilized in this example consisted of 5 strains of Bacteroides fragilis. All assays were carried out in 96-well microtitre plates. If an isolate was obtained from either a culture collection or clinical source, the isolate was immediately inoculated into Wilkins-Chalgren broth (Oxoid) and incubated at 37° C. in an anaerobic chamber in an atmosphere of 85% nitrogen, 10% carbon dioxide, and 5% hydrogen for 48 hours. At the end of this time, the viable count was about […] broth. A 1 ml aliquot of each culture was placed in an ampoule and quick frozen in acetone-dry ice mixture and stored in liquid nitrogen. […] A 2 mg sample of the test compound was dissolved in 0.2 ml of a suitable solvent such as dimethylsulfoxide, polyethylene glycol 200 or methanol. […] After addition of the test solution the final inoculum level was 10^5 cells/ml. The plates were incubated for 48 hours at 37° C. in the anaerobic chamber. The Minimum Inhibitory Concentration (MIC) was read visually. The MIC is defined as the lowest concentration at which there is no detectable growth. The Minimum Bactericidal Concentration (MBC) was determined by taking 50 μ l aliquot from each well and placing it in fresh medium. […] The strains of Bacteroides fragilis utilized in the above procedure are identified by letter in accordance with the following legend: |A B. fragilis NCTC 10581

The subject of another experiment is B. fragilis WS-1. As to the kind of experiment: Screening panel of Bacteroides fragilis, MIC and MBC, strain E. The conditions noted are these: WS1, 48 h. How it is done: as §1, with “|E” for “|A”, “WS-1* | *Obtained from St. Thomas's Hospital Medical School, London, United | Kingdom.” for “NCTC 10581”
The subject of experiment [8] is B. fragilis MZ-R ATCC 11295. As to the kind of experiment: Screening panel of Bacteroides fragilis, MIC and MBC, strain D. The note with it: ATCC11295, 48 h.
A further experiment concerns B. fragilis NCTC 9353. Put plainly: Screening panel of Bacteroides fragilis, MIC and MBC, strain B. The note with it: Bacteroides fragilis, NCTC9353, 48 h. How it is done: as §1, with “|B” for “|A”, “9353” for “10581”
Setting [9] is: 48 hours at 37° C., anaerobic, read-out: Minimum Inhibitory Concentration (MIC).
Setting [10] is: less than 5 colonies (99.9% reduction) after 48 hours, read-out: Minimum Bactericidal Concentration (MBC).

Consider `Cc1ccc(C2=[N+]([O-])c3cc(C(F)(F)F)ccc3N3CC(C)(C)CN=C23)cc1` [Example 3, 2,3-Dihydro-2,2-dimethyl-5-(4-methylphenyl)-8-trifluoromethyl-1H-pyrimid [1,2-a]quinoxaline 6-oxide], for which the MIC was > 100 µg/mL in experiment [1]; > 100 µg/mL in experiment [2]; < 0.8 µg/mL in experiment [3]; < 0.8 µg/mL in experiment [4]; > 100 µg/mL in experiment [5]; 12.5 µg/mL (≈ 32.3 µM) in [6]. The MIC was > 100 µg/mL in the experiment on Peptococcus magnus; 6.2 µg/mL (≈ 16 µM) in [7]; < 0.8 µg/mL in the experiment on B. fragilis NCTC 10581 (NCTC10581, 48 hours at 37° C., anaerobic, read-out: Minimum Inhibitory Concentration (MIC)); < 0.8 µg/mL in the experiment with B. fragilis WS-1 (setting [9]); 1.5 µg/mL (≈ 3.87 µM) in experiment [8] (setting [9]); 1.5 µg/mL (≈ 3.87 µM) in the experiment on B. fragilis NCTC 9353 (setting [9]). Moreover, the MBC with B. fragilis NCTC 10581 (NCTC10581, less than 5 colonies (99.9% reduction) after 48 hours, read-out: Minimum Bactericidal Concentration (MBC)) is < 0.8 µg/mL; with B. fragilis WS-1 (setting [10]) it was 1.5 µg/mL (≈ 3.87 µM); in [8] (setting [10]), 6.2 µg/mL (≈ 16 µM); in the experiment with B. fragilis NCTC 9353 (setting [10]), 1.5 µg/mL (≈ 3.87 µM).
